{"source": "patent US20150307938A1", "about": "“METHOD TO IDENTIFY A NOVEL CLASS OF IMMUNOLOGIC ADJUVANTS” (Lancell, L.L.C., priority 2011, published 2015)", "tested_on": "skin", "test": "Affymetrix microarray of skin, DBP-4 hr and analogs vs. untreated; gene selection by log-2 fold change, Wilcoxon, Kendall tau (Tables 8, 9)", "format": "in vivo, mouse"}
{"smiles": "CCCCOC(=O)c1ccccc1C(=O)OCCCC", "note": "[DBP, dibutylphthalate]", "values": [{"measurement": "Wilcoxon: Pigp", "setting": "gene Pigp, NM_019543_at, DBP-4 hr vs. untreated", "value": "No"}, {"measurement": "Kendall: Pigp", "setting": "gene Pigp, NM_019543_at, gene expression vs. output", "value": "Yes"}, {"measurement": "Wilcoxon: Pkp4", "setting": "gene Pkp4, NM_026361_at, DBP-4 hr vs. untreated", "value": "No"}, {"measurement": "Kendall: Pkp4", "setting": "gene Pkp4, NM_026361_at, gene expression vs. output", "value": "Yes"}, {"measurement": "Wilcoxon: Plk3", "setting": "gene Plk3, NM_013807_at, DBP-4 hr vs. untreated", "value": "No"}, {"measurement": "Kendall: Plk3", "setting": "gene Plk3, NM_013807_at, gene expression vs. output", "value": "Yes"}, {"measurement": "Wilcoxon: Polr2g", "setting": "gene Polr2g, NM_026329_at, DBP-4 hr vs. untreated", "value": "No"}, {"measurement": "Kendall: Polr2g", "setting": "gene Polr2g, NM_026329_at, gene expression vs. output", "value": "Yes"}, {"measurement": "Wilcoxon: Pparg", "setting": "gene Pparg, NM_011146_at, DBP-4 hr vs. untreated", "value": "No"}, {"measurement": "Kendall: Pparg", "setting": "gene Pparg, NM_011146_at, gene expression vs. output", "value": "Yes"}, {"measurement": "Wilcoxon: Ppp1r7", "setting": "gene Ppp1r7, NM_023200_at, DBP-4 hr vs. untreated", "value": "No"}, {"measurement": "Kendall: Ppp1r7", "setting": "gene Ppp1r7, NM_023200_at, gene expression vs. output", "value": "Yes"}, {"measurement": "Wilcoxon: Prokr1", "setting": "gene Prokr1, NM_021381_at, DBP-4 hr vs. untreated", "value": "No"}, {"measurement": "Kendall: Prokr1", "setting": "gene Prokr1, NM_021381_at, gene expression vs. output", "value": "Yes"}, {"measurement": "Wilcoxon: Ptpn1", "setting": "gene Ptpn1, NM_011201_at, DBP-4 hr vs. untreated", "value": "No"}, {"measurement": "Kendall: Ptpn1", "setting": "gene Ptpn1, NM_011201_at, gene expression vs. output", "value": "Yes"}, {"measurement": "Wilcoxon: Rabgef1", "setting": "gene Rabgef1, NM_019983_at, DBP-4 hr vs. untreated", "value": "No"}, {"measurement": "Kendall: Rabgef1", "setting": "gene Rabgef1, NM_019983_at, gene expression vs. output", "value": "Yes"}, {"measurement": "Wilcoxon: Rai12", "setting": "gene Rai12, NM_018740_at, DBP-4 hr vs. untreated", "value": "No"}, {"measurement": "Kendall: Rai12", "setting": "gene Rai12, NM_018740_at, gene expression vs. output", "value": "Yes"}, {"measurement": "Wilcoxon: Rbbp6", "setting": "gene Rbbp6, NM_011247_at, DBP-4 hr vs. untreated", "value": "No"}, {"measurement": "Kendall: Rbbp6", "setting": "gene Rbbp6, NM_011247_at, gene expression vs. output", "value": "Yes"}, {"measurement": "Wilcoxon: Rpl7l1", "setting": "gene Rpl7l1, NM_025433_at, DBP-4 hr vs. untreated", "value": "No"}, {"measurement": "Kendall: Rpl7l1", "setting": "gene Rpl7l1, NM_025433_at, gene expression vs. output", "value": "Yes"}, {"measurement": "Wilcoxon: Sema4d", "setting": "gene Sema4d, NM_013660_at, DBP-4 hr vs. untreated", "value": "No"}, {"measurement": "Kendall: Sema4d", "setting": "gene Sema4d, NM_013660_at, gene expression vs. output", "value": "Yes"}, {"measurement": "Wilcoxon: Siae", "setting": "gene Siae, NM_011734_at, DBP-4 hr vs. untreated", "value": "No"}, {"measurement": "Kendall: Siae", "setting": "gene Siae, NM_011734_at, gene expression vs. output", "value": "Yes"}, {"measurement": "Wilcoxon: Sirt1", "setting": "gene Sirt1, NM_019812_at, DBP-4 hr vs. untreated", "value": "No"}, {"measurement": "Kendall: Sirt1", "setting": "gene Sirt1, NM_019812_at, gene expression vs. output", "value": "Yes"}, {"measurement": "Wilcoxon: Slc9a3r1", "setting": "gene Slc9a3r1, NM_012030_at, DBP-4 hr vs. untreated", "value": "No"}, {"measurement": "Kendall: Slc9a3r1", "setting": "gene Slc9a3r1, NM_012030_at, gene expression vs. output", "value": "Yes"}, {"measurement": "Wilcoxon: Slc30a4", "setting": "gene Slc30a4, NM_011774_at, DBP-4 hr vs. untreated", "value": "No"}, {"measurement": "Kendall: Slc30a4", "setting": "gene Slc30a4, NM_011774_at, gene expression vs. output", "value": "Yes"}, {"measurement": "Wilcoxon: Slc35a1", "setting": "gene Slc35a1, NM_011895_at, DBP-4 hr vs. untreated", "value": "No"}, {"measurement": "Kendall: Slc35a1", "setting": "gene Slc35a1, NM_011895_at, gene expression vs. output", "value": "Yes"}, {"measurement": "Wilcoxon: Smarcb1", "setting": "gene Smarcb1, NM_011418_at, DBP-4 hr vs. untreated", "value": "No"}, {"measurement": "Kendall: Smarcb1", "setting": "gene Smarcb1, NM_011418_at, gene expression vs. output", "value": "Yes"}, {"measurement": "Wilcoxon: Srsf6", "setting": "gene Srsf6, NM_026499_at, DBP-4 hr vs. untreated", "value": "No"}, {"measurement": "Kendall: Srsf6", "setting": "gene Srsf6, NM_026499_at, gene expression vs. output", "value": "Yes"}, {"measurement": "Wilcoxon: Stx17", "setting": "gene Stx17, NM_026343_at, DBP-4 hr vs. untreated", "value": "No"}, {"measurement": "Kendall: Stx17", "setting": "gene Stx17, NM_026343_at, gene expression vs. output", "value": "Yes"}, {"measurement": "Wilcoxon: Tmed1", "setting": "gene Tmed1, NM_010744_at, DBP-4 hr vs. untreated", "value": "No"}, {"measurement": "Kendall: Tmed1", "setting": "gene Tmed1, NM_010744_at, gene expression vs. output", "value": "Yes"}, {"measurement": "Wilcoxon: Tmem208", "setting": "gene Tmem208, NM_025486_at, DBP-4 hr vs. untreated", "value": "No"}, {"measurement": "Kendall: Tmem208", "setting": "gene Tmem208, NM_025486_at, gene expression vs. output", "value": "Yes"}, {"measurement": "Wilcoxon: Tnfrsf1a", "setting": "gene Tnfrsf1a, NM_011609_at, DBP-4 hr vs. untreated", "value": "No"}, {"measurement": "Kendall: Tnfrsf1a", "setting": "gene Tnfrsf1a, NM_011609_at, gene expression vs. output", "value": "Yes"}, {"measurement": "Wilcoxon: Tnfrsf9", "setting": "gene Tnfrsf9, NM_011612_at, DBP-4 hr vs. untreated", "value": "No"}, {"measurement": "Kendall: Tnfrsf9", "setting": "gene Tnfrsf9, NM_011612_at, gene expression vs. output", "value": "Yes"}, {"measurement": "Wilcoxon: Trappc2l", "setting": "gene Trappc2l, NM_021502_at, DBP-4 hr vs. untreated", "value": "No"}, {"measurement": "Kendall: Trappc2l", "setting": "gene Trappc2l, NM_021502_at, gene expression vs. output", "value": "Yes"}, {"measurement": "Wilcoxon: Tril", "setting": "gene Tril, NM_025817_at, DBP-4 hr vs. untreated", "value": "No"}, {"measurement": "Kendall: Tril", "setting": "gene Tril, NM_025817_at, gene expression vs. output", "value": "Yes"}, {"measurement": "Wilcoxon: Trim12a", "setting": "gene Trim12a, NM_023835_at, DBP-4 hr vs. untreated", "value": "No"}, {"measurement": "Kendall: Trim12a", "setting": "gene Trim12a, NM_023835_at, gene expression vs. output", "value": "Yes"}, {"measurement": "Wilcoxon: Trip4", "setting": "gene Trip4, NM_019797_at, DBP-4 hr vs. untreated", "value": "No"}, {"measurement": "Kendall: Trip4", "setting": "gene Trip4, NM_019797_at, gene expression vs. output", "value": "Yes"}, {"measurement": "Wilcoxon: Trp63", "setting": "gene Trp63, NM_011641_at, DBP-4 hr vs. untreated", "value": "No"}, {"measurement": "Kendall: Trp63", "setting": "gene Trp63, NM_011641_at, gene expression vs. output", "value": "Yes"}, {"measurement": "Wilcoxon: Trpv2", "setting": "gene Trpv2, NM_011706_at, DBP-4 hr vs. untreated", "value": "No"}, {"measurement": "Kendall: Trpv2", "setting": "gene Trpv2, NM_011706_at, gene expression vs. output", "value": "Yes"}, {"measurement": "Wilcoxon: Tsn", "setting": "gene Tsn, NM_011650_at, DBP-4 hr vs. untreated", "value": "No"}, {"measurement": "Kendall: Tsn", "setting": "gene Tsn, NM_011650_at, gene expression vs. output", "value": "Yes"}, {"measurement": "Wilcoxon: Ufc1", "setting": "gene Ufc1, NM_025388_at, DBP-4 hr vs. untreated", "value": "No"}, {"measurement": "Kendall: Ufc1", "setting": "gene Ufc1, NM_025388_at, gene expression vs. output", "value": "Yes"}, {"measurement": "Wilcoxon: Ulk2", "setting": "gene Ulk2, NM_013881_at, DBP-4 hr vs. untreated", "value": "No"}, {"measurement": "Kendall: Ulk2", "setting": "gene Ulk2, NM_013881_at, gene expression vs. output", "value": "Yes"}, {"measurement": "Wilcoxon: Wbp1", "setting": "gene Wbp1, NM_016757_at, DBP-4 hr vs. untreated", "value": "No"}, {"measurement": "Kendall: Wbp1", "setting": "gene Wbp1, NM_016757_at, gene expression vs. output", "value": "Yes"}, {"measurement": "Wilcoxon: Zfp68", "setting": "gene Zfp68, NM_013844_at, DBP-4 hr vs. untreated", "value": "No"}, {"measurement": "Kendall: Zfp68", "setting": "gene Zfp68, NM_013844_at, gene expression vs. output", "value": "Yes"}, {"measurement": "Wilcoxon: Zfp90", "setting": "gene Zfp90, NM_011764_at, DBP-4 hr vs. untreated", "value": "No"}, {"measurement": "Kendall: Zfp90", "setting": "gene Zfp90, NM_011764_at, gene expression vs. output", "value": "Yes"}, {"measurement": "Wilcoxon: Zkscan3", "setting": "gene Zkscan3, NM_023685_at, DBP-4 hr vs. untreated", "value": "No"}, {"measurement": "Kendall: Zkscan3", "setting": "gene Zkscan3, NM_023685_at, gene expression vs. output", "value": "Yes"}, {"measurement": "Wilcoxon: Zkscan6", "setting": "gene Zkscan6, NM_026107_at, DBP-4 hr vs. untreated", "value": "No"}, {"measurement": "Kendall: Zkscan6", "setting": "gene Zkscan6, NM_026107_at, gene expression vs. output", "value": "Yes"}, {"measurement": "1110032A04Rik NM_133675_at ≧2-Fold change", "setting": "mouse, in vivo", "value": "No"}, {"measurement": "1600029D21Rik (NM_029639_at) ≧2-Fold change", "setting": "mouse, in vivo", "value": "Yes"}, {"measurement": "2010002N04Rik (NM_134133_at) ≧2-Fold change", "setting": "mouse, in vivo", "value": "Yes"}, {"measurement": "2310016C08Rik (NM_023516_at) ≧2-Fold change", "setting": "mouse, in vivo", "value": "Yes"}, {"measurement": "2510002D24Rik NM_001033164_at ≧2-Fold change", "setting": "mouse, in vivo", "value": "No"}, {"measurement": "2510009E07Rik NM_001001881_at ≧2-Fold change", "setting": "mouse, in vivo", "value": "No"}, {"measurement": "2610528A11Rik XR_105647_at ≧2-Fold change", "setting": "mouse, in vivo", "value": "No"}, {"measurement": "1500015010Rik NM_024283_at ≧2-Fold change", "setting": "mouse, in vivo", "value": "No"}, {"measurement": "1810011010Rik (NM_026931_at) ≧2-Fold change", "setting": "mouse, in vivo", "value": "Yes"}, {"measurement": "3110079015Rik NM_028473_at ≧2-Fold change", "setting": "mouse, in vivo", "value": "No"}, {"measurement": "A2m NM_175628_at ≧2-Fold change", "setting": "mouse, in vivo", "value": "No"}]}
